Results taken from PubChem BioAssay (NCI).
Where “and” joins values, the source holds several entries; their conditions need not be identical. Equal entries are not always repeated.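 48-hour exposure; five concentrations; linearly interpolated endpoints. GI50 marks 50% less growth. At the TGI there is no net growth.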

Experiments:
Assay in all cases: NCI tumour cell line growth inhibition, 48 h
A549 NSCLC = test system: A549 NSCLC
COLO 205 colon = test system: COLO 205 colon
HCT-15 colon = test system: HCT-15 colon
HT29 colon = test system: HT29 colon
MALME-3M melanoma = test system: MALME-3M melanoma
OVCAR-3 ovarian = test system: OVCAR-3 ovarian
UACC-257 melanoma = test system: UACC-257 melanoma
UO-31 renal = test system: UO-31 renal
A498 renal = test system: A498 renal
SNB-75 CNS = test system: SNB-75 CNS

| SMILES | GI50 (A549 NSCLC) [µM] | TGI (A549 NSCLC) [µM] | GI50 (COLO 205 colon) | TGI (COLO 205 colon) [µM] | GI50 (HCT-15 colon) | TGI (HCT-15 colon) [µM] | GI50 (HT29 colon) [µM] | TGI (HT29 colon) [µM] | GI50 (MALME-3M melanoma) [µM] | TGI (MALME-3M melanoma) | GI50 (OVCAR-3 ovarian) [µM] | TGI (OVCAR-3 ovarian) [µM] | GI50 (UACC-257 melanoma) [µM] | TGI (UACC-257 melanoma) [µM] | GI50 (UO-31 renal) [µM] | TGI (UO-31 renal) [µM] | TGI (A498 renal) [µM] | TGI (SNB-75 CNS) [µM] | GI50 (A498 renal) [µM] | GI50 (SNB-75 CNS) [µM] |
| --- | --- | --- | --- | --- | --- | --- | --- | --- | --- | --- | --- | --- | --- | --- | --- | --- | --- | --- | --- | --- |
| Cc1cn(C2CC(F)C(CO)O2)c(=O)[nH]c1=O (centres undefined) | > 100 | > 100 | > 100 µM | > 100 | > 100 µM | > 100 | 98.8 | > 100 | > 100 | > 100 µM | > 100 | > 100 | > 100 | > 100 | > 100 | > 100 |  |  |  |  |
| COC(=O)C1=C(C)N(NC(N)=O)C2(N)N(NC(N)=O)C(C)=C(C(=O)OC)C12C(=O)OC (centres undefined) |  | > 100 |  | > 100 |  | > 100 |  | > 100 |  | > 100 µM |  | > 10 |  | > 100 |  | > 100 | > 100 |  |  |  |
| Cc1c(/C=N/NS(=O)(=O)c2ccccc2)no[n+]1[O-] |  | > 100 |  | > 100 |  | > 100 |  | > 100 |  | > 100 µM |  | > 100 |  |  |  | 49.6 | > 100 |  |  |  |
| O=C(O)CNc1c2ccccc2nc2ccccc12 |  | > 100 |  | > 100 |  | > 100 |  | > 100 |  | > 100 µM |  | > 100 |  | > 100 |  | > 100 |  | > 100 |  |  |
| O=C1NC(=S)NC(=O)C1=Cc1cc2c(cc1[N+](=O)[O-])OCO2 |  | > 100 |  | > 100 |  | > 100 |  |  |  | > 100 µM |  | > 100 |  | > 100 |  | > 100 | > 100 | > 100 |  |  |
| COc1ccc(/C=N/N=C(\N)NO)cc1OC |  | 95.8 |  | > 100 |  | > 100 |  | > 100 |  | > 100 µM |  | > 100 |  | > 100 |  | > 100 |  | > 100 |  |  |
| CC(=O)Nc1ccc(C(=O)N2N=C(C)/C(=C/c3ccccc3O)C2=O)cc1 |  | > 100 |  | > 100 |  | > 100 |  | > 100 |  | > 100 µM |  | > 100 |  | > 100 |  | > 100 |  | > 100 |  |  |
| N#CC(NNC(=O)c1ccccc1O)c1ccc(O)cc1 (centres undefined) |  | > 100 |  | > 100 |  | > 100 |  | > 100 |  | > 100 µM |  | 74 |  | > 100 |  | 11.9 |  |  |  |  |
| Nc1ccc2c(SCCSc3c4ccccc4nc4cc(N)ccc34)c3ccccc3nc2c1 |  | > 100 |  | > 100 |  | > 100 |  | > 100 |  | > 100 µM |  | > 100 |  | > 100 |  | > 100 |  | > 100 |  |  |
| CCCCCCCCCC(=O)CC(=O)c1ccc(O)cc1O |  | > 100 |  | > 100 |  | > 100 |  | > 100 |  | > 100 µM |  | 45 |  | 71.2 |  | 98 |  | 95.5 |  |  |
| [N-]=[N+]=NC(c1cn(C2CC(O)C(CO)O2)c(=O)[nH]c1=O)C(Br)I (centres undefined) |  | > 100 |  | > 100 |  | > 100 |  | > 100 |  | > 100 µM |  | > 100 |  |  |  | > 100 |  | > 100 |  |  |
| COc1ccc2[nH]c(-c3ccccn3)cc(=O)c2c1 |  | > 100 |  | > 100 |  |  |  | > 100 |  | 75.6 µM | > 100 | > 100 |  | > 100 |  | > 100 |  | 88 |  |  |
| CC(=O)CCCCCCCCCCCC[C@@H]1CC[C@H](C)[C@H](O)N1 |  | > 100 |  | > 100 |  | > 100 |  | > 100 |  | > 100 µM |  | > 100 |  | > 100 |  | > 100 |  | > 100 |  |  |
| N#CC(=S)Nc1cccc(Cl)c1 |  | > 100 |  | > 100 |  | > 100 |  | > 100 |  | > 100 µM |  | 56.4 |  | > 100 |  |  | > 100 | 75.9 |  |  |
| CC1OC(n2ncc(=O)[nH]c2=O)C=CC1=O (centres undefined) |  | > 100 | > 100 µM and 36.9 µM | > 100 | 90.5 µM and 34.6 µM | > 100 |  | > 100 |  | 40.2 µM and 48.3 µM |  | > 100 | 37 | > 100 |  | > 100 |  | > 100 |  |  |
| O=c1cccc(C#CC#C[C@H]2O[C@@H]2CO)o1 | 1.77 | 3.64 | 0.665 µM | 1.58 | 0.353 µM | 1.29 |  |  |  |  | 0.286 | 0.689 | 1.16 | 2.91 | 2.59 | 6.29 | 4.34 | 3.52 | 2.03 | 1.89 |
| CC(C)C(=O)/C=C/c1ccccc1 |  | > 100 |  | > 100 |  |  |  | > 100 |  |  |  | > 100 |  | > 100 |  | > 100 | > 100 | > 100 |  |  |
| N[C@@H](Cc1c[nH]c2ccccc12)C(=O)NC1CCN(C(=O)c2c[nH]c3ccccc23)CC1 | > 100 | > 100 | 47.9 µM | > 100 | > 100 µM | > 100 | > 100 | > 100 | 77.5 | > 100 µM | > 100 | > 100 |  |  | > 100 | > 100 |  | > 100 |  | 37.4 |
| OC1(C(O)(c2ccc(-c3ccccc3)cc2)c2ccc(-c3ccccc3)cc2)CCCCC1 |  | > 100 |  | > 100 |  | > 100 |  | > 100 |  |  |  | > 100 |  | > 100 |  | > 100 | > 100 | > 100 |  |  |
| Oc1ccc(/C=N\Nc2ccccn2)c(O)c1 | 2.51 | > 100 | 5.83 µM | > 100 | 0.533 µM | > 100 | 4.8 | > 100 |  |  | 1.77 | > 100 | 2.73 | 16.7 | 0.241 | 0.719 | 7.17 | 6.62 | 1.87 | 1.46 |
